{"source": "ChEMBL document CHEMBL6096683", "about": "“Novel Orthosteric/Allosteric Ligands of Cannabinoid Receptors: An Unexpected Pharmacological Profile” (J Med Chem, 2025)", "key": {"Cannabinoid receptor 1 [1]": {"target": "T1, Cannabinoid receptor 1 (Homo sapiens, UniProt P21554)", "T1 sequence (P21554 whole entry)": "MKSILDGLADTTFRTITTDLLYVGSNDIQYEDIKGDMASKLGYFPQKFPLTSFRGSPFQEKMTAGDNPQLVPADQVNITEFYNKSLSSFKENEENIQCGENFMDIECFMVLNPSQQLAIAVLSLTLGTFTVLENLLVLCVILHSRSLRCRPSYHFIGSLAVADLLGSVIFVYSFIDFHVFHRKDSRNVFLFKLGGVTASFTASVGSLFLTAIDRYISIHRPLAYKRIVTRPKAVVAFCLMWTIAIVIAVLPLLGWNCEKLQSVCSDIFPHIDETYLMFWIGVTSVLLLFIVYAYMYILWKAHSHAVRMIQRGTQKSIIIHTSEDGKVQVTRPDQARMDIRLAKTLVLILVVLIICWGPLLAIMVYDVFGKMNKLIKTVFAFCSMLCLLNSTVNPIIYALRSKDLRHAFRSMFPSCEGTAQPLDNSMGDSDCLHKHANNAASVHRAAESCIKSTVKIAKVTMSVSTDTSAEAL", "assay": "Displacement of [3H]CP55940 from human CB1 receptor expressed in CHO cell membrane incubated for 2 hrs", "format": "cell membranes"}, "Cannabinoid receptor 1 [2]": {"target": "T1, Cannabinoid receptor 1", "assay": "Displacement of [3H]CP55940 from human CB1 receptor expressed in CHO cell membrane at 0.001 to 10 uM incubated for 2 hrs relative to control", "format": "cell membranes", "details": "dose 0.001-10 µM"}, "Cannabinoid receptor 2 [3]": {"target": "T2, Cannabinoid receptor 2 (Homo sapiens, UniProt P34972)", "T2 sequence (P34972 whole entry)": "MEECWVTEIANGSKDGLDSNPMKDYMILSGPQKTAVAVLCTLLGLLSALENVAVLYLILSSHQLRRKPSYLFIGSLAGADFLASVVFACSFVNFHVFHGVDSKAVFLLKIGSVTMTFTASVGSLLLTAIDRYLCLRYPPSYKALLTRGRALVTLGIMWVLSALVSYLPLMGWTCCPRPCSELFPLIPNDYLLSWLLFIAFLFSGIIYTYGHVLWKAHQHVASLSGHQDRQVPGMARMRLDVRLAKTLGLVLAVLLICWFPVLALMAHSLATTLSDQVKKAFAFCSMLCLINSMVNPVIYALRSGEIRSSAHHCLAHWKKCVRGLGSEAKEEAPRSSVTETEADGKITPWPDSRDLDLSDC", "assay": "Displacement of [3H]CP55940 from human CB2 receptor expressed in CHO cell membrane at 0.001 to 10 uM incubated for 2 hrs relative to control", "format": "cell membranes", "details": "filed as agonist, dose 0.001-10 µM"}, "Cannabinoid receptor 2 [4]": {"target": "T2, Cannabinoid receptor 2", "assay": "Agonist activity at human CB2 receptor expressed in CHO cells assessed as inhibition of forskolin-induced cAMP production at 10 uM incubated for 90 mins by HitHunter assay", "format": "functional, cell-based", "details": "filed as agonist"}, "Cannabinoid receptor 1 [5]": {"target": "T1, Cannabinoid receptor 1", "assay": "Agonist activity at human CB1 receptor expressed in CHO cells assessed as inhibition of forskolin-induced cAMP production at 100 nM incubated for 90 mins in presence of CP55940 ligand by HitHunter assay relative to control", "format": "functional, cell-based"}, "Cannabinoid receptor 1 [6]": {"target": "T1, Cannabinoid receptor 1", "assay": "Agonist activity at human CB1 receptor expressed in CHO cells assessed as inhibition of forskolin-induced cAMP production incubated for 90 mins in presence of CP55940 ligand by HitHunter assay", "format": "functional, cell-based"}, "Cannabinoid receptor 1 [7]": {"target": "T1, Cannabinoid receptor 1", "assay": "Agonist activity at human CB1 receptor expressed in CHO cells assessed as inhibition of forskolin-induced cAMP production incubated for 90 mins in presence of FM6b ligand by HitHunter assay", "format": "functional, cell-based"}, "Cannabinoid receptor 1 [8]": {"target": "T1, Cannabinoid receptor 1", "assay": "Agonist activity at human CB1 receptor expressed in CHO cells assessed as inhibition of forskolin-induced cAMP production at 100 nM incubated for 90 mins in presence of FM6b ligand by HitHunter assay relative to control", "format": "functional, cell-based", "details": "filed as agonist"}, "Cannabinoid receptor 1 [9]": {"target": "T1, Cannabinoid receptor 1", "assay": "Agonist activity at human CB1 receptor expressed in CHO cells assessed as inhibition of forskolin-induced cAMP production at 100 nM incubated for 90 mins in presence of GAT211 ligand by HitHunter assay relative to control", "format": "functional, cell-based"}, "BEND3 [10]": {"tested_on": "BEND3", "assay": "Disruption of monolayer integrity in mouse BEND3 cells assessed as change in TEER modulation at 135 mins", "format": "functional, cell-based"}, "BEND3 [11]": {"tested_on": "BEND3", "assay": "Disruption of monolayer integrity in mouse BEND3 cells assessed as change in TEER modulation at 180 mins", "format": "functional, cell-based"}, "Cannabinoid receptor 2 [12]": {"target": "T2, Cannabinoid receptor 2", "assay": "Displacement of [3H]CP55940 from human CB2 receptor expressed in CHO cell membrane incubated for 2 hrs", "format": "cell membranes", "details": "read-out: IC50"}, "Cannabinoid receptor 2 [13]": {"target": "T2, Cannabinoid receptor 2", "assay": "Agonist activity at human CB2 receptor expressed in CHO cells assessed as inhibition of forskolin-induced cAMP production incubated for 90 mins in presence of CP55940 ligand by HitHunter assay", "format": "functional, cell-based"}, "Cannabinoid receptor 2 [14]": {"target": "T2, Cannabinoid receptor 2", "assay": "Agonist activity at human CB2 receptor expressed in CHO cells assessed as inhibition of forskolin-induced cAMP production at 100 nM incubated for 90 mins in presence of CP55940 ligand by HitHunter assay relative to control", "format": "functional, cell-based", "details": "filed as agonist"}, "Cannabinoid receptor 2 [15]": {"target": "T2, Cannabinoid receptor 2", "assay": "Agonist activity at human CB2 receptor expressed in CHO cells assessed as inhibition of forskolin-induced cAMP production at 100 nM incubated for 90 mins in presence of FM6b ligand by HitHunter assay relative to control", "format": "functional, cell-based", "details": "filed as agonist"}, "Cannabinoid receptor 2 [16]": {"target": "T2, Cannabinoid receptor 2", "assay": "Agonist activity at human CB2 receptor expressed in CHO cells assessed as inhibition of forskolin-induced cAMP production incubated for 90 mins in presence of FM6b ligand by HitHunter assay", "format": "functional, cell-based"}, "Cannabinoid receptor 1 [17]": {"target": "T1, Cannabinoid receptor 1", "assay": "Agonist activity at human CB1 receptor expressed in CHO cells assessed as inhibition of forskolin-induced cAMP production incubated for 90 mins in presence of GAT211 ligand by HitHunter assay", "format": "functional, cell-based"}, "HepG2": {"tested_on": "HepG2", "assay": "Induction of lipid accumulation in human HepG2 cells at 1 uM incubated for 24 hrs by Oil Red O staining based analysis", "format": "functional, cell-based"}}, "note": "Active and inactive are the calls of the source. The rule behind the calls is not given here.", "data": [{"smiles": "Cc1c(Br)cc(C(=O)NC2CCCCCC2)c(=O)n1CCCn1cc(CCCCC(=O)NCC(c2ccccc2)c2c(-c3ccccc3)[nH]c3ccccc23)nn1", "note": "(configuration not stated)", "values": [{"measurement": "IC50", "setting": "Cannabinoid receptor 1 [1]", "value": 0.000631, "unit": "µM"}, {"measurement": "Emax", "setting": "Cannabinoid receptor 1 [2]; filed as agonist", "value": 60, "unit": "%"}, {"measurement": "Emax", "setting": "Cannabinoid receptor 2 [3]", "value": 97, "unit": "%"}, {"measurement": "Activity", "setting": "Cannabinoid receptor 2 [4]", "value": "Active"}, {"measurement": "Emax", "setting": "Cannabinoid receptor 1 [5]", "value": 31, "unit": "%"}, {"measurement": "EC50", "setting": "Cannabinoid receptor 1 [6]", "value": 0.0251, "unit": "µM"}, {"measurement": "EC50", "setting": "Cannabinoid receptor 1 [7]", "value": 0.0631, "unit": "µM"}, {"measurement": "Emax", "setting": "Cannabinoid receptor 1 [8]", "value": 67, "unit": "%"}, {"measurement": "Emax", "setting": "Cannabinoid receptor 1 [9]", "value": 3.32, "unit": "%"}]}, {"smiles": "O=C1OC2(c3ccc(O)cc3Oc3cc(O)ccc32)c2ccccc21", "values": [{"measurement": "Activity", "setting": "BEND3 [10]", "value": "Active"}, {"measurement": "Activity", "setting": "BEND3 [11]", "value": "Active"}]}, {"smiles": "Cc1c(Br)cc(C(=O)NC2CCCCCC2)c(=O)n1CCCn1cc(CCCC(=O)NCC(c2ccccc2)c2c(-c3ccccc3)[nH]c3ccccc23)nn1", "note": "(configuration not stated)", "values": [{"measurement": "IC50", "setting": "Cannabinoid receptor 1 [1]", "value": 0.0251, "unit": "µM"}, {"measurement": "Emax", "setting": "Cannabinoid receptor 1 [2]", "value": 31, "unit": "%"}, {"measurement": "IC50", "setting": "Cannabinoid receptor 2 [12]", "value": 0.1, "unit": "µM"}, {"measurement": "Emax", "setting": "Cannabinoid receptor 2 [3]", "value": 160, "unit": "%"}, {"measurement": "Activity", "setting": "Cannabinoid receptor 2 [4]", "value": "Active"}, {"measurement": "EC50", "setting": "Cannabinoid receptor 2 [13]", "value": 0.00794, "unit": "µM"}, {"measurement": "Emax", "setting": "Cannabinoid receptor 2 [14]", "value": 104, "unit": "%"}, {"measurement": "Emax", "setting": "Cannabinoid receptor 1 [5]; filed as agonist", "value": 79, "unit": "%"}, {"measurement": "Emax", "setting": "Cannabinoid receptor 2 [15]", "value": 73, "unit": "%"}, {"measurement": "EC50", "setting": "Cannabinoid receptor 1 [6]", "value": 0.0251, "unit": "µM"}, {"measurement": "EC50", "setting": "Cannabinoid receptor 2 [16]", "value": 0.398, "unit": "µM"}, {"measurement": "EC50", "setting": "Cannabinoid receptor 1 [7]", "value": 0.631, "unit": "µM"}, {"measurement": "Emax", "setting": "Cannabinoid receptor 1 [8]", "value": 120, "unit": "%"}, {"measurement": "EC50", "setting": "Cannabinoid receptor 1 [17]", "value": 0.0158, "unit": "µM"}, {"measurement": "Emax", "setting": "Cannabinoid receptor 1 [9]", "value": 0.335, "unit": "%"}]}, {"smiles": "Cc1c(C(=O)NN2CCCCC2)nn(-c2ccc(Cl)cc2Cl)c1-c1ccc(Cl)cc1", "values": [{"measurement": "Activity", "setting": "HepG2", "value": "Active"}]}, {"smiles": "Cc1c(Br)cc(C(=O)NC2CCCCCC2)c(=O)n1CCCCCn1cc(CCC(=O)NCC(c2ccccc2)c2c(-c3ccccc3)[nH]c3ccccc23)nn1", "note": "(configuration not stated)", "values": [{"measurement": "IC50", "setting": "Cannabinoid receptor 1 [1]", "value": 0.02, "unit": "µM"}, {"measurement": "Emax", "setting": "Cannabinoid receptor 1 [2]; filed as agonist", "value": 42, "unit": "%"}, {"measurement": "Emax", "setting": "Cannabinoid receptor 2 [3]", "value": 80, "unit": "%"}, {"measurement": "Activity", "setting": "Cannabinoid receptor 2 [4]", "value": "Active"}, {"measurement": "Emax", "setting": "Cannabinoid receptor 1 [5]; filed as agonist", "value": 58, "unit": "%"}, {"measurement": "EC50", "setting": "Cannabinoid receptor 1 [6]", "value": 0.02, "unit": "µM"}, {"measurement": "EC50", "setting": "Cannabinoid receptor 1 [7]", "value": 2, "unit": "µM"}, {"measurement": "Emax", "setting": "Cannabinoid receptor 1 [8]", "value": 120, "unit": "%"}, {"measurement": "EC50", "setting": "Cannabinoid receptor 1 [17]", "value": 0.0631, "unit": "µM"}, {"measurement": "Emax", "setting": "Cannabinoid receptor 1 [9]", "value": 1.3, "unit": "%"}]}]}
